From patent publication US20260226071A1, “2, 4-DIANILINOPYRIMIDINE-BASED AURORA-A KINASE SELECTIVE DEGRADATION INDUCING COMPOUNDS” (UPPTHERA, INC., priority 2023, published 2026) come the findings set out here.

As a reminder, the IC50 is the concentration that gives 50% inhibition.

For one assay, the system named is NCI-H446 cell line. Briefly: Cell viability assay for NCI-H446 cell line. To be noted: Homo sapiens, NCI-H446, 120 h; H446 cells, 5 days culture, EZ-Cytox; read-out: IC50 value (Level). The format is cell-based. Put shortly:
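Viability was measured by absorbance at 450 nm after 4 h with EZ-Cytox, following 5-day exposure of NCI-H446 cells (RPMI 1640, 10% FBS, 37 °C, 5% CO2) to 3-fold serial dilutions from 1000 nM down to 0.15 nM, added 24 h post-seeding.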

Another assay addresses T1, Aurora kinase A (AURKA) (Homo sapiens, UniProt O14965).
T1 construct: endogenous in cells; host or cells: HeLa LgBit (AURKA-HiBit KI), CRISPR/Cas9 knock-in at the endogenous AURKA locus
T1 sequence (O14965 1-403): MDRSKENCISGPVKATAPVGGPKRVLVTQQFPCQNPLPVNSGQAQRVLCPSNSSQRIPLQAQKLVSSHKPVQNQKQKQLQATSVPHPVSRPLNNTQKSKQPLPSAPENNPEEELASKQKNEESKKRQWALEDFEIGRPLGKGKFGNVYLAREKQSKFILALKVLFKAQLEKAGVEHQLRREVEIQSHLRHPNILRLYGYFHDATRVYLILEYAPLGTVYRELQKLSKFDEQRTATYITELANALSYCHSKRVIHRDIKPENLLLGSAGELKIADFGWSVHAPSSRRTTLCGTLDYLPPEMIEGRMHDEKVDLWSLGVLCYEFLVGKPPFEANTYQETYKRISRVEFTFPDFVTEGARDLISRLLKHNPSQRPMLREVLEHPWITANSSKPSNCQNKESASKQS
The assay can be described thus: Luciferase assay for AURKA in HeLa LgBit (AURKA-HiBit KI) cell line. It is filed as cell-based. The conditions noted are these: HeLa LgBit (AURKA-HiBit KI) cells, measured after 12 hours. Put shortly:
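Test compounds (10 nM or 100 nM) added to AURKA-HiBit knock-in HeLa LgBit cells that had been pre-loaded with Endurazine for 2 h following an 18 h culture at 3×10^4 cells. Endogenous AURKA-HiBit level followed by luminescence (470-480 nm), measured after 12 h.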

Take `O=C1CCC(c2ccc(N3CCN(CC[C@H]4CC[C@H](NC(=O)c5ccc(Nc6ncc(F)c(Nc7ccc(C(=O)Nc8ccccc8Cl)cc7)n6)cc5)CC4)CC3)cc2)C(=O)N1` (stereo partly drawn) [Compound 17, N-(2-chlorophenyl)-4-((2-((4-(((1r,4r)-4-(2-(4-(4-(2,6-dioxopiperidin-3-yl)phenyl)piperazin-1-yl)ethyl)cyclohexyl)carbamoyl)phenyl)amino)-5-fluoropyrimidin-4-yl)amino)benzamide]: the IC50 in the assay on NCI-H446 cell line fell in the range of 50 to 100 nM. The entries for the “luminescence value (Level)” value on Aurora kinase A (AURKA) (10 nM compound) and at Aurora kinase A (AURKA) (100 nM compound) were “A (A is <0.3)” and “A (A is <0.2)”, respectively.
On the same counts, the results for `O=C1CCC(Nc2ccc(N3CCN(CC[C@H]4CC[C@H](NC(=O)c5ccc(Nc6ncc(F)c(Nc7ccc(C(=O)Nc8ccccc8Cl)cc7)n6)cc5)CC4)CC3)c(F)c2)C(=O)N1` (stereo partly drawn) [Compound 86, N-(2-chlorophenyl)-4-((2-((4-(((1r,4r)-4-(2-(4-(4-((2,6-dioxopiperidin-3-yl)amino)-2-fluorophenyl)piperazin-1-yl)ethyl)cyclohexyl)carbamoyl)phenyl)amino)-5-fluoropyrimidin-4-yl)amino)benzamide] are 50 to 100 nM, “A (A is <0.3)” and “A (A is <0.2)”.
Taken in the same sequence, the figures for `O=C1CCC(c2ccc(N3CCN(CCC4CCN(NC(=O)c5ccc(Nc6ncc(F)c(Nc7ccc(NC(=O)c8ccccc8Cl)cc7)n6)cc5)CC4)CC3)cc2)C(=O)N1` (stereo not drawn) [Compound 93, 2-chloro-N-(4-((2-((4-((4-(2-(4-(4-(2,6-dioxopiperidin-3-yl)phenyl)piperazin-1-yl)ethyl)piperidin-1-yl)carbamoyl)phenyl)amino)-5-fluoropyrimidin-4-yl)amino)phenyl)benzamide] were under 50 nM, “A (A is <0.3)” and “A (A is <0.2)”.
On to `O=C1CCC(c2ccc(N3CCC(CCC(=O)N4CCC(NC(=O)c5ccc(Nc6ncc(F)c(Nc7ccc(C(=O)Nc8ccccc8Cl)cc7)n6)cc5)CC4)CC3)cc2)C(=O)N1` (stereo not drawn) [Compound 12, N-(2-chlorophenyl)-4-((2-((4-((1-(3-(1-(4-(2,6-dioxopiperidin-3-yl)phenyl)piperidin-4-yl)propanoyl)piperidin-4-yl)carbamoyl)phenyl)amino)-5-fluoropyrimidin-4-yl)amino)benzamide], for which the IC50 in the assay on NCI-H446 cell line was under 50 nM. In addition, the “luminescence value (Level)” value on Aurora kinase A (AURKA) (10 nM compound) is recorded as “B (B is 0.3 to 0.5)”; on Aurora kinase A (AURKA) (100 nM compound), “A (A is <0.2)”.
`O=C1CCC(Nc2ccc(N3CCN(CC4CC45CCN(C(=O)c4ccc(Nc6ncc(F)c(Nc7ccc(C(=O)Nc8ccccc8Cl)cc7)n6)cc4)CC5)CC3)cc2)C(=O)N1` (stereo not drawn) [Compound 30, N-(2-chlorophenyl)-4-((2-((4-(1-((4-(4-((2,6-dioxopiperidin-3-yl)amino)phenyl)piperazin-1-yl)methyl)-6-azaspiro[2.5]octane-6-carbonyl)phenyl)amino)-5-fluoropyrimidin-4-yl)amino)benzamide]: the IC50 in the assay on NCI-H446 cell line was under 50 nM. Besides, the “luminescence value (Level)” value on Aurora kinase A (AURKA) (10 nM compound) is reported as “B (B is 0.3 to 0.5)”; at Aurora kinase A (AURKA) (100 nM compound), “A (A is <0.2)”.
`O=C1CCC(c2ccc(N3CCN(CCC4CCN(NC(=O)c5ccc(Nc6ncc(F)c(Nc7ccc(NC(=O)c8ccccc8F)cc7)n6)cc5)CC4)CC3)cc2)C(=O)N1` (stereo not drawn) [Compound 104, N-[4-[[2-[4-[[4-[2-[4-[4-(2,6-dioxo-3-piperidyl)phenyl]piperazin-1-yl]ethyl]-1-piperidyl]carbamoyl]anilino]-5-fluoro-pyrimidin-4-yl]amino]phenyl]-2-fluoro-benzamide]: the IC50 in the assay on NCI-H446 cell line is under 50 nM. Further, the “luminescence value (Level)” value on Aurora kinase A (AURKA) (10 nM compound) was “A (A is <0.3)”; on Aurora kinase A (AURKA) (100 nM compound) it was “A (A is <0.2)”.
Taken in the same sequence, the figures for `O=C1CC[C@H](Nc2ccc(N3CCN(CCC4CCN(NC(=O)c5ccc(Nc6ncc(F)c(Nc7ccc(C(=O)Nc8ccccc8Cl)cc7)n6)cc5)CC4)CC3)cc2F)C(=O)N1` [Compound 95, (S)—N-(2-chlorophenyl)-4-((2-((4-((4-(2-(4-(4-((2,6-dioxopiperidin-3-yl)amino)-3-fluorophenyl)piperazin-1-yl)ethyl)piperidin-1-yl)carbamoyl)phenyl)amino)-5-fluoropyrimidin-4-yl)amino)benzamide] were 50 to 100 nM, “B (B is 0.3 to 0.5)” and “A (A is <0.2)”.
Turning to `O=C1CCC(c2ccc(N3CCN(CCN4CCC(NC(=O)c5ccc(Nc6ncc(F)c(Nc7ccc(C(=O)Nc8ccccc8Cl)cc7)n6)cc5)CC4)CC3)cc2)C(=O)N1` (stereo not drawn) [Compound 18, N-(2-chlorophenyl)-4-((2-((4-((1-(2-(4-(4-(2,6-dioxopiperidin-3-yl)phenyl)piperazin-1-yl)ethyl)piperidin-4-yl)carbamoyl)phenyl)amino)-5-fluoropyrimidin-4-yl)amino) benzamide], in the assay with NCI-H446 cell line, the IC50 is under 50 nM. The “luminescence value (Level)” value is “A (A is <0.3)” at Aurora kinase A (AURKA) (10 nM compound) and “A (A is <0.2)” at Aurora kinase A (AURKA) (100 nM compound).
Regarding `O=C1CCC(Nc2ccc(N3CCN(CCC4CCN(NC(=O)c5ccc(Nc6ncc(F)c(Nc7ccc(C(=O)Nc8ccccc8Cl)cc7)n6)cc5)CC4)CC3)cc2)C(=O)N1` (stereo not drawn) [Compound 43, N-(2-chlorophenyl)-4-((2-((4-((4-(2-(4-(4-((2,6-dioxopiperidin-3-yl)amino)phenyl)piperazin-1-yl)ethyl)piperidin-1-yl)carbamoyl)phenyl)amino)-5-fluoropyrimidin-4-yl)amino)benzamide], the IC50 in the assay on NCI-H446 cell line is under 50 nM. Besides, the “luminescence value (Level)” value is given as “A (A is <0.3)” on Aurora kinase A (AURKA) (10 nM compound) and “A (A is <0.2)” at Aurora kinase A (AURKA) (100 nM compound).
On the same counts, the results for `CN(CC1CCN(c2ccc(NC3CCC(=O)NC3=O)cc2F)CC1)[C@H]1CC[C@H](NC(=O)c2ccc(Nc3ncc(F)c(Nc4ccc(C(=O)Nc5ccccc5Cl)cc4)n3)cc2)CC1` (stereo partly drawn) [Compound 66, N-(2-chlorophenyl)-4-[[2-[4-[[4-[[1-[4-[(2,6-dioxo-3-piperidyl)amino]-2-fluoro-phenyl]-4-piperidyl]methyl-methyl-amino]cyclohexyl]carbamoyl]anilino]-5-fluoro-pyrimidin-4-yl]amino]benzamide] are under 50 nM, “A (A is <0.3)” and “A (A is <0.2)”.
Take `O=C1CCC(c2ccc(N3CCC(O)(CCC4CCN(NC(=O)c5ccc(Nc6ncc(F)c(Nc7ccc(C(=O)Nc8ccccc8Cl)cc7)n6)cc5)CC4)CC3)c(F)c2)C(=O)N1` (stereo not drawn) [Compound 96, N-(2-chlorophenyl)-4-((2-((4-((4-(2-(1-(4-(2,6-dioxopiperidin-3-yl)-2-fluorophenyl)-4-hydroxypiperidin-4-yl)ethyl)piperidin-1-yl)carbamoyl)phenyl)amino)-5-fluoropyrimidin-4-yl)amino)benzamide]: in the assay on NCI-H446 cell line, the IC50 was under 50 nM. The entries for the “luminescence value (Level)” value at Aurora kinase A (AURKA) (10 nM compound) and at Aurora kinase A (AURKA) (100 nM compound) were “A (A is <0.3)” and “A (A is <0.2)”, respectively.
In the case of `O=C1CCC(c2ccc(N3CCN(CCC4CCN(NC(=O)c5ccc(Nc6ncc(F)c(Nc7ccccc7Cl)n6)cc5)CC4)CC3)cc2)C(=O)N1` (stereo not drawn) [Compound 57, 4-((4-((2-chlorophenyl)amino)-5-fluoropyrimidin-2-yl)amino)-N-(4-(2-(4-(4-(2,6-dioxopiperidin-3-yl)phenyl)piperazin-1-yl)ethyl)piperidin-1-yl)benzamide], the IC50 in the assay with NCI-H446 cell line was 100 to 150 nM. Also, the “luminescence value (Level)” value on Aurora kinase A (AURKA) (10 nM compound) is “A (A is <0.3)”; at Aurora kinase A (AURKA) (100 nM compound), “A (A is <0.2)”.
Taken in the same sequence, the figures for `CCC(CN1CCN(c2ccc(C3CCC(=O)NC3=O)cc2)CC1)C1CCN(NC(=O)c2ccc(Nc3ncc(F)c(Nc4ccc(C(=O)Nc5ccccc5Cl)cc4)n3)cc2)CC1` (stereo not drawn) [Compound 72, N-(2-chlorophenyl)-4-((2-((4-((4-(1-(4-(4-(2,6-dioxopiperidin-3-yl)phenyl)piperazin-1-yl)butan-2-yl)piperidin-1-yl)carbamoyl)phenyl)amino)-5-fluoropyrimidin-4-yl)amino)benzamide] were under 50 nM, “B (B is 0.3 to 0.5)” and “A (A is <0.2)”.
As to `O=C1CCC(c2ccc(N3CCN(C(=O)CN4CCC(NC(=O)c5ccc(Nc6ncc(F)c(Nc7ccc(C(=O)Nc8ccccc8Cl)cc7)n6)cc5)CC4)CC3)cc2)C(=O)N1` (stereo not drawn) [Compound 51, N-(2-chlorophenyl)-4-((2-((4-((1-(2-(4-(4-(2,6-dioxopiperidin-3-yl)phenyl)piperazin-1-yl)-2-oxoethyl)piperidin-4-yl)carbamoyl)phenyl)amino)-5-fluoropyrimidin-4-yl)amino)benzamide], the IC50 in the assay with NCI-H446 cell line is under 50 nM. In addition, the “luminescence value (Level)” value at Aurora kinase A (AURKA) (10 nM compound) is “A (A is <0.3)”; at Aurora kinase A (AURKA) (100 nM compound), “A (A is <0.2)”.
